Key:
Assay in all cases: Kinome-wide profiling
[1] = biological target: NIM1 (Homo sapiens (Human), UniProt Q8IY84); type: biochemical; conditions: read-out: % Residual Activity (mean)
[2] = biological target: TRKA (Homo sapiens (Human), UniProt P04629); type: biochemical; conditions: read-out: % Residual Activity (mean)
[3] = biological target: CLK3 (Homo sapiens (Human), UniProt P49761); type: biochemical; conditions: read-out: % Residual Activity (mean)
[4] = biological target: MAST3 (Homo sapiens (Human), UniProt O60307); type: biochemical; conditions: read-out: % Residual Activity (mean)
[5] = biological target: ABL1 (Homo sapiens (Human), UniProt P00519); type: biochemical; conditions: read-out: % Residual Activity (mean)
[6] = biological target: EPHB2 (Homo sapiens (Human), UniProt P29323); type: biochemical; conditions: read-out: % Residual Activity (mean)
[7] = biological target: Aurora B (Homo sapiens (Human), UniProt Q96GD4); type: biochemical; conditions: read-out: % Residual Activity (mean)
[8] = biological target: CDK2/cyclin E2 (Homo sapiens (Human), UniProt P24941); type: biochemical; conditions: read-out: % Residual Activity (mean)
[9] = biological target: BLK (Homo sapiens (Human), UniProt P51451); type: biochemical; conditions: read-out: % Residual Activity (mean)
[10] = biological target: MARK3 (Homo sapiens (Human), UniProt P27448); type: biochemical; conditions: read-out: % Residual Activity (mean)
[11] = biological target: DCAMKL1 (Homo sapiens (Human), UniProt O15075); type: biochemical; conditions: read-out: % Residual Activity (mean)
[12] = biological target: GRK7 (Homo sapiens (Human), UniProt Q8WTQ7); type: biochemical; conditions: read-out: % Residual Activity (mean)
[13] = biological target: GRK1 (Homo sapiens (Human), UniProt Q15835); type: biochemical; conditions: read-out: % Residual Activity (mean)
[14] = biological target: FLT1/VEGFR1 (Homo sapiens (Human), UniProt P17948); type: biochemical; conditions: read-out: % Residual Activity (mean)
[15] = biological target: PAK4 (Homo sapiens (Human), UniProt O96013); type: biochemical; conditions: read-out: % Residual Activity (mean)
[16] = biological target: GCK/MAP4K2 (Homo sapiens (Human), UniProt Q12851); type: biochemical; conditions: read-out: % Residual Activity (mean)
[17] = biological target: FGFR4 (Homo sapiens (Human), UniProt P22455); type: biochemical; conditions: read-out: % Residual Activity (mean)
[18] = biological target: PKCzeta (Homo sapiens (Human), UniProt Q05513); type: biochemical; conditions: read-out: % Residual Activity (mean)
[19] = biological target: SRMS (Homo sapiens (Human), UniProt Q9H3Y6); type: biochemical; conditions: read-out: % Residual Activity (mean)
[20] = biological target: GRK5 (Homo sapiens (Human), UniProt P34947); type: biochemical; conditions: read-out: % Residual Activity (mean)
[21] = biological target: TAOK2/TAO1 (Homo sapiens (Human), UniProt Q9UL54); type: biochemical; conditions: read-out: % Residual Activity (mean)
[22] = biological target: LATS1 (Homo sapiens (Human), UniProt O95835); type: biochemical; conditions: read-out: % Residual Activity (mean)
[23] = biological target: TYK2 (Homo sapiens (Human), UniProt P29597); type: biochemical; conditions: read-out: % Residual Activity (mean)
[24] = biological target: BRSK2 (Homo sapiens (Human), UniProt Q8IWQ3); type: biochemical; conditions: read-out: % Residual Activity (mean)
[25] = biological target: MST4 (Homo sapiens (Human), UniProt Q9P289); type: biochemical; conditions: read-out: % Residual Activity (mean)
[26] = biological target: c-MET (Homo sapiens (Human), UniProt P08581); type: biochemical; conditions: read-out: % Residual Activity (mean)
[27] = biological target: IKKb/IKBKB (Homo sapiens (Human), UniProt O14920); type: biochemical; conditions: read-out: % Residual Activity (mean)
[28] = system: RAF1; type: biochemical, human; conditions: 10 μM
[29] = biological target: PKAcg (Homo sapiens (Human), UniProt P22612); type: biochemical; conditions: read-out: % Residual Activity (mean)
[30] = biological target: DYRK2 (Homo sapiens (Human), UniProt Q92630); type: biochemical; conditions: read-out: % Residual Activity (mean)
[31] = biological target: NEK6 (Homo sapiens (Human), UniProt Q9HC98); type: biochemical; conditions: read-out: % Residual Activity (mean)
[32] = biological target: CSK (Homo sapiens (Human), UniProt P41240); type: biochemical; conditions: read-out: % Residual Activity (mean)
[33] = biological target: CLK2 (Homo sapiens (Human), UniProt P49760); type: biochemical; conditions: read-out: % Residual Activity (mean)
[34] = biological target: WNK3 (Homo sapiens (Human), UniProt Q9BYP7); type: biochemical; conditions: read-out: % Residual Activity (mean)
[35] = biological target: Aurora A (Homo sapiens (Human), UniProt O14965); type: biochemical; conditions: read-out: % Residual Activity (mean)
[36] = biological target: MELK (Homo sapiens (Human), UniProt Q14680); type: biochemical; conditions: read-out: % Residual Activity (mean)
[37] = biological target: CLK4 (Homo sapiens (Human), UniProt Q9HAZ1); type: biochemical; conditions: read-out: % Residual Activity (mean)
[38] = biological target: MYO3b (Homo sapiens (Human), UniProt Q8WXR4); type: biochemical; conditions: read-out: % Residual Activity (mean)
[39] = biological target: CDK6/cyclin D3 (Homo sapiens (Human), UniProt Q00534); type: biochemical; conditions: read-out: % Residual Activity (mean)
[40] = biological target: CHK1 (Homo sapiens (Human), UniProt O14757); type: biochemical; conditions: read-out: % Residual Activity (mean)

Chain of NIM1 (Q8IY84 whole entry): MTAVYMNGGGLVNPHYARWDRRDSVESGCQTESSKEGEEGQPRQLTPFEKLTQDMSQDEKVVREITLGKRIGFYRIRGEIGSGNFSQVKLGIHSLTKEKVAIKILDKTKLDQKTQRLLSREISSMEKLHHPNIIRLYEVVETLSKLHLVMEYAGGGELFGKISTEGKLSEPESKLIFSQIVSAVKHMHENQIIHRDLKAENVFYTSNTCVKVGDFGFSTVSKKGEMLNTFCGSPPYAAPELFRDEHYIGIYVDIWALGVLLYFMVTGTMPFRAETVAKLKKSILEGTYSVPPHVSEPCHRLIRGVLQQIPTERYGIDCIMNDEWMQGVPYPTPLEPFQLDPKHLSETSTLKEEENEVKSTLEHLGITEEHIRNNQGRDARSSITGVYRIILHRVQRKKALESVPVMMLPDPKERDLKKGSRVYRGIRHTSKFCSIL
Chain of MARK3 (P27448 whole entry): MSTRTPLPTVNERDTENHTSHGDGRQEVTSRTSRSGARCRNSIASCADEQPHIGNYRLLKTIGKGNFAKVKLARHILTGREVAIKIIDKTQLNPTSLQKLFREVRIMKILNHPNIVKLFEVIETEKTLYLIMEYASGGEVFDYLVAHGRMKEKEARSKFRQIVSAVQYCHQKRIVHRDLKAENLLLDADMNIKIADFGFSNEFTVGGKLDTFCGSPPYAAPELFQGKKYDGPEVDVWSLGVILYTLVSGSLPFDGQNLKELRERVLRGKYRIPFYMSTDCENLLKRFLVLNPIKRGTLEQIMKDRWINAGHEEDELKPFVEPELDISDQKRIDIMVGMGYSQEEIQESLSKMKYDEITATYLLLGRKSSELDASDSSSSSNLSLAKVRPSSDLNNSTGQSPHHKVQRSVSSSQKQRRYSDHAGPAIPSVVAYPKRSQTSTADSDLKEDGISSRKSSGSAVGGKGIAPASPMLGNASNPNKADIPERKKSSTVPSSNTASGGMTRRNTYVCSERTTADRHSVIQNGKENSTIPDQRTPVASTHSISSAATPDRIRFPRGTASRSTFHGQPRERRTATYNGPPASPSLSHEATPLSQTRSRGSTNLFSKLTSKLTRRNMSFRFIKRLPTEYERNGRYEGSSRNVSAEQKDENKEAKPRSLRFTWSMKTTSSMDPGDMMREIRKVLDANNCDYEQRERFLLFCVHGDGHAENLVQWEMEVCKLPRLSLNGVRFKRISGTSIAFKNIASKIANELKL
Chain of BLK (P51451 whole entry): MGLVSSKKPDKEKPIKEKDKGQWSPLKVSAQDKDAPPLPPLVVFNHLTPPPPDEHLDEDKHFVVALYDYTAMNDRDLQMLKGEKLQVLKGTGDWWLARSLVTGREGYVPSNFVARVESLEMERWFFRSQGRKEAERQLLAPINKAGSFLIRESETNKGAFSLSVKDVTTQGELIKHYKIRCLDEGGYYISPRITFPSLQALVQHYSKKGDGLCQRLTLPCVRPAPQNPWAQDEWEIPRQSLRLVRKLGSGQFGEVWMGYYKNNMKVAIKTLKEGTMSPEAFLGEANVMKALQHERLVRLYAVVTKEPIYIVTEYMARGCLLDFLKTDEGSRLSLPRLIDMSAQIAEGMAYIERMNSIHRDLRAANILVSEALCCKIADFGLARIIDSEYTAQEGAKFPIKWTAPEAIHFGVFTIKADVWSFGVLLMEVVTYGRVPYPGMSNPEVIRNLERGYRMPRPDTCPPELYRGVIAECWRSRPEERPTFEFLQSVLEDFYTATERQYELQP
Chain of Aurora A (O14965 whole entry): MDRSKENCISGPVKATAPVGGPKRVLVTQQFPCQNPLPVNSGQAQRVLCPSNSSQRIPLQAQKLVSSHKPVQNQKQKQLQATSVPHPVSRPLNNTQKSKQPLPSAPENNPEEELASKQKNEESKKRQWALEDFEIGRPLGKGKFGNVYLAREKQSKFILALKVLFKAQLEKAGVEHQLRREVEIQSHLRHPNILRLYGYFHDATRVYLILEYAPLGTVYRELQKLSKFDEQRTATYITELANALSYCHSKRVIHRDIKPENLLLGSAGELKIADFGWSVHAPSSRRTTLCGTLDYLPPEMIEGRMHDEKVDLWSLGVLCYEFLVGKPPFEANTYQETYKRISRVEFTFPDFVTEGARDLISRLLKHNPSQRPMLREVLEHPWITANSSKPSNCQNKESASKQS
Chain of BRSK2 (Q8IWQ3 whole entry): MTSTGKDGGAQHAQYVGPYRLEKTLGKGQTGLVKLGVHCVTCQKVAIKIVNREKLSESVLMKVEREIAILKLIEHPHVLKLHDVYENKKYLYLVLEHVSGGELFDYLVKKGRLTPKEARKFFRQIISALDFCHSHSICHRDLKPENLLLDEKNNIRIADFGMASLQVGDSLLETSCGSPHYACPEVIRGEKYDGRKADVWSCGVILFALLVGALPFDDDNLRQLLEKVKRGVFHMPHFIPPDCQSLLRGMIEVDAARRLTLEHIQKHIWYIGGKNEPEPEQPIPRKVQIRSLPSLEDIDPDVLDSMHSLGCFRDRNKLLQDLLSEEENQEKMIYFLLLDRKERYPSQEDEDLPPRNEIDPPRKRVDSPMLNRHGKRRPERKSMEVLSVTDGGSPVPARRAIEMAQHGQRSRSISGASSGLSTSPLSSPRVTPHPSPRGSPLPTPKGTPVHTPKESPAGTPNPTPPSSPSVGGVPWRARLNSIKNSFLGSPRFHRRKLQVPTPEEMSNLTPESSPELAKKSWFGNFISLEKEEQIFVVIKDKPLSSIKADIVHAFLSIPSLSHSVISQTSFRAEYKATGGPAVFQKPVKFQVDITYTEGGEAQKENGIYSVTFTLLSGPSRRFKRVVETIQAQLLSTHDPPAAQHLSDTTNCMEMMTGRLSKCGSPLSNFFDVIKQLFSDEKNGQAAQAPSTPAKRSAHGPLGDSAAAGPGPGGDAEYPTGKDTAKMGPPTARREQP
Chain of MELK (Q14680 whole entry): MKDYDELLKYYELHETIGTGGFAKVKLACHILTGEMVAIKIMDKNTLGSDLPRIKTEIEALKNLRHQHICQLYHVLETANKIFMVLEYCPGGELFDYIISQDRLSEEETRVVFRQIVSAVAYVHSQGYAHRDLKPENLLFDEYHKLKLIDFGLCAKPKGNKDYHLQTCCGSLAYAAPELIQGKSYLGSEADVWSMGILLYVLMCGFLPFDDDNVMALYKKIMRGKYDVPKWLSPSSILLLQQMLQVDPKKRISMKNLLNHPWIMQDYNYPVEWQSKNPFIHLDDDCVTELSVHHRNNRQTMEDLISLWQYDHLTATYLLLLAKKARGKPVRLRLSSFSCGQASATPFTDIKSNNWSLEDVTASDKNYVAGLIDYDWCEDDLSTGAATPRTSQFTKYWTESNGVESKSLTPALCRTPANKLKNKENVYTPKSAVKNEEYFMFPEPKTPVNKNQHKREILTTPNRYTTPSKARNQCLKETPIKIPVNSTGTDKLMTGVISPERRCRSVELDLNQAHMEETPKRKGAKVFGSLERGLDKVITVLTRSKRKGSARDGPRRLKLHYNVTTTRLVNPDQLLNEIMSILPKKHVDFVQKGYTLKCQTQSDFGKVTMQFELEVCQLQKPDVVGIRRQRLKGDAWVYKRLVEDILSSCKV
Chain of NEK6 (Q9HC98 whole entry): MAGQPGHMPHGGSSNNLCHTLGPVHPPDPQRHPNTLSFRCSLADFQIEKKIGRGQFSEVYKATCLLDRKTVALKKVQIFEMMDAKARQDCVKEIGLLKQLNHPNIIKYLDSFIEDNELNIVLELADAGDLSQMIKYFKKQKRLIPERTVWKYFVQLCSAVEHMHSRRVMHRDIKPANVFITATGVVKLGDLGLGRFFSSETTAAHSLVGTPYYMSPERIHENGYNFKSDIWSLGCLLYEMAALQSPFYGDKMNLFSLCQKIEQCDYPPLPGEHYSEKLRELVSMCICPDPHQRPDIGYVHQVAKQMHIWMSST
Chain of PAK4 (O96013 whole entry): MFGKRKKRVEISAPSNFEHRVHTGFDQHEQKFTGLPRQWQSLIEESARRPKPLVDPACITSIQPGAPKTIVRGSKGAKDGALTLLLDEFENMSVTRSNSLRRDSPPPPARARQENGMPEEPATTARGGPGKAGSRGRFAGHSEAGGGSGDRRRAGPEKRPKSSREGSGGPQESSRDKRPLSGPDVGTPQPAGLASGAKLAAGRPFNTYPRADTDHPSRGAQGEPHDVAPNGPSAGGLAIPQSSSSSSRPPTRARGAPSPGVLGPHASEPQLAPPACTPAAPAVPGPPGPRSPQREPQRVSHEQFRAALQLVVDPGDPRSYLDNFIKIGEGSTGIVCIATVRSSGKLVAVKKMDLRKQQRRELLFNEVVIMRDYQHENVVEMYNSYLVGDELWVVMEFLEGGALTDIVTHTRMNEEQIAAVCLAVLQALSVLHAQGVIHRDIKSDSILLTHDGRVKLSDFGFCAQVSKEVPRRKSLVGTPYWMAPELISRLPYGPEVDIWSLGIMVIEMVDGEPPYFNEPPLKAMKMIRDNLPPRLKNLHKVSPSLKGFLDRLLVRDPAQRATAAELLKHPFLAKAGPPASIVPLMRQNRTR
Chain of Aurora B (Q96GD4 whole entry): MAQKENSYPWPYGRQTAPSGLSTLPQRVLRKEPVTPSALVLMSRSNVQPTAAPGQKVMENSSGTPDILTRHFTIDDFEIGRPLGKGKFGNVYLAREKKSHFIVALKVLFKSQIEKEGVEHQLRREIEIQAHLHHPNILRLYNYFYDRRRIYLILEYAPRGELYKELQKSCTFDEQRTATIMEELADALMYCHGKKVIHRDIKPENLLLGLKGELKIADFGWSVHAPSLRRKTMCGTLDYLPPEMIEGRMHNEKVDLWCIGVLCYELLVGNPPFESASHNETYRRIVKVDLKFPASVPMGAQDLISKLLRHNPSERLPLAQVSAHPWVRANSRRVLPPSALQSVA

Compound: CCn1cnc2c(NCc3ccc(-c4ccccn4)nc3)nc(-c3ccc(N)nc3)nc21 [Example 53, N-([2,2′-bipyridin]-5-ylmethyl)-2-(6-aminopyridin-3-yl)-9-ethyl-9H-purin-6-amine]
- remaining activity at 10 µM [1]: 76%
- remaining activity at 10 µM [2]: 28.7%
- remaining activity at 10 µM [3]: 94.6%
- remaining activity at 10 µM [4]: 39.3%
- remaining activity at 10 µM [5]: 61.2%
- remaining activity at 10 µM [6]: 2.52%
- remaining activity at 10 µM [7]: 73%
- remaining activity at 10 µM [8]: 9.78%
- remaining activity at 10 µM [9]: 66.8%
- remaining activity at 10 µM [10]: 83.1%
- remaining activity at 10 µM [11]: 72.6%
- remaining activity at 10 µM [12]: 49.7%
- remaining activity at 10 µM [13]: 76.3%
- remaining activity at 10 µM [14]: 36.3%
- remaining activity at 10 µM [15]: 12.9%
- remaining activity at 10 µM [16]: 58.4%
- remaining activity at 10 µM [17]: 87.4%
- remaining activity at 10 µM [18]: 90.2%
- remaining activity at 10 µM [19]: 96.8%
- remaining activity at 10 µM [20]: 91.5%
- remaining activity at 10 µM [21]: 23.8%
- remaining activity at 10 µM [22]: 85%
- remaining activity at 10 µM [23]: 90.7%
- remaining activity at 10 µM [24]: 97.5%
- remaining activity at 10 µM [25]: 45.8%
- remaining activity at 10 µM [26]: 96.4%
- remaining activity at 10 µM [27]: 83.7%
- % Residual Activity (mean) [28]: 68.57%
- remaining activity at 10 µM [29]: 88.4%
- remaining activity at 10 µM [30]: 22.3%
- remaining activity at 10 µM [31]: 92.1%
- remaining activity at 10 µM [32]: 54.8%
- remaining activity at 10 µM [33]: 11.7%
- remaining activity at 10 µM [34]: 74.5%
- remaining activity at 10 µM [35]: 33.4%
- remaining activity at 10 µM [36]: 21.1%
- remaining activity at 10 µM [37]: 28.7%
- remaining activity at 10 µM [38]: 68.1%
- remaining activity at 10 µM [39]: 12.9%
- remaining activity at 10 µM [40]: 79.5%

From patent publication US20250101023A1, “HETEROARYL DERIVATIVE AND USES THEREOF” (IUCF-HYU (INDUSTRY-UNIVERSITY COOPERATION FOUNDATION …, priority 2022, published 2025)
